# Molecular target: human recombinant H-PGDS (Homo sapiens, UniProt O60760)
# Experiment: Slightly modified fluorescence intensity h-PGDS TBA enzyme assay (1:40,000 enzyme, 40 second reaction, 1/2 log dilutions, top concentration typically 10 μM)
# Type: biochemical
# Settings: slightly modified assay: 1:40,000 human recombinant H-PGDS
# Method in brief: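 Enzyme pre-incubated 10 min at room temperature with inhibitor in 100 mM Trizma pH 8.0, 100 μM MgCl2, 0.1 mg/ml rabbit IgG, 2.5 mM glutathione, 0.5% DMSO; reaction started with 5.0 μM PGH2 and stopped with FeCl2/citric acid. Remaining PGH2 quantified as MDA–TBA fluorescence (ex 530/em 560 nm); IC50 from 4-parameter fit, 11 concentrations in duplicate.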
# Sequence of human recombinant H-PGDS (O60760 whole entry): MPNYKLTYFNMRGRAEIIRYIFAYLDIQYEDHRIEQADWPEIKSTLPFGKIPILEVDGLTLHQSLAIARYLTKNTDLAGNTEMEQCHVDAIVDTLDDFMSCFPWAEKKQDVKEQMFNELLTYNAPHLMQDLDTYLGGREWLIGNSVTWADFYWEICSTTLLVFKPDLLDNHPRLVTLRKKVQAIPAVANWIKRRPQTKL
row,Compound,IC50 [nM]
1,"CN(C)C(=O)C[C@H]1CC[C@H](NC(=O)c2ccc(-c3cccc(F)c3)nc2)CC1 [Example 95, N-{trans-4-[2-(Dimethylamino)-2-oxoethyl]cyclohexyl}-6-(3-fluorophenyl)nicotinamide]",6.28
2,"CCN1CCN(C(=O)[C@H]2CC[C@H](NC(=O)c3ccc(-c4cccc(F)c4)nc3)CC2)CC1 [Example 96, N-{trans-4-[(4-Ethylpiperazin-1-yl)carbonyl]cyclohexyl}-6-(3-fluorophenyl)nicotinamide]",23.7
3,"CC(C)(O)[C@H]1CC[C@H](NC(=O)c2ccc(-c3cccc(F)c3)nc2)CC1 [Example 97, 6-(3-Fluorophenyl)-N-[trans-4-(1-hydroxy-1-methylethyl)cyclohexyl]nicotinamide]",2.9
4,"N[C@H]1CCN(C(=O)[C@H]2CC[C@H](NC(=O)c3ccc(-c4cccc(F)c4)nc3)CC2)C1 [Example 98, N-(trans-4-{[(3S)-3-Aminopyrrolidin-1-yl]carbonyl}cyclohexyl)-6-(3-fluorophenyl)nicotinamide]",21.6
5,"N[C@@H]1CCN(C(=O)[C@H]2CC[C@H](NC(=O)c3ccc(-c4cccc(F)c4)nc3)CC2)C1 [Example 99, N-(trans-4-{[(3R)-3-Aminopyrrolidin-1-yl]carbonyl}cyclohexyl)-6-(3-fluorophenyl)nicotinamide]",11.2
6,"NC1CN(C(=O)[C@H]2CC[C@H](NC(=O)c3ccc(-c4cccc(F)c4)nc3)CC2)C1 [Example 100, N-{trans-4-[(3-Aminoazetidin-1-yl)carbonyl]cyclohexyl}-6-(3-fluorophenyl)nicotinamide]",12.9
7,"C[C@H]1CN(C(=O)[C@H]2CC[C@H](NC(=O)c3ccc(-c4cccc(F)c4)nc3)CC2)CCN1 [Example 101, 6-(3-Fluorophenyl)-N-(trans-4-{[(3S)-3-methylpiperazin-1-yl]carbonyl}cyclohexyl)nicotinamide]",15.8
8,"C[C@@H]1CN(C(=O)[C@H]2CC[C@H](NC(=O)c3ccc(-c4cccc(F)c4)nc3)CC2)CCN1 [Example 102, 6-(3-Fluorophenyl)-N-(trans-4-{[(3R)-3-methylpiperazin-1-yl]carbonyl}cyclohexyl)nicotinamide]",9.74
9,"O=C(N[C@H]1CC[C@H](CO)CC1)c1ccc(-c2cccc(F)c2)nc1 [Example 103, 6-(3-Fluorophenyl)-N-[trans-4-(hydroxymethyl)cyclohexyl]nicotinamide]",1.43
10,"Cc1nccn1[C@H]1CC[C@H](NC(=O)c2ccc(-c3cccc(F)c3)nc2)CC1 [Example 105, 6-(3-Fluorophenyl)-N-[trans-4-(2-methyl-1H-imidazol-1-yl)cyclohexyl]nicotinamide]",14.7
11,"CC(C)c1nccn1[C@H]1CC[C@H](NC(=O)c2ccc(-c3cccc(F)c3)nc2)CC1 [Example 106, 6-(3-Fluorophenyl)-N-[trans-4-(2-isopropyl-1H-imidazol-1-yl)cyclohexyl]nicotinamide]",14.2
12,"O=C(N[C@H]1CC[C@H](C(=O)N2CCN(C3CC3)CC2)CC1)c1ccc(-c2cccc(F)c2)nc1 [Example 107, N-{trans-4-[(4-Cyclopropylpiperazin-1-yl)carbonyl]cyclohexyl}-6-(3-fluorophenyl)nicotinamide]",31.1
13,"C[C@@H]1CNCCN1C(=O)[C@H]1CC[C@H](NC(=O)c2ccc(-c3cccc(F)c3)nc2)CC1 [Example 108, 6-(3-Fluorophenyl)-N-(trans-4-{[(2R)-2-methylpiperazin-1-yl]carbonyl}cyclohexyl)nicotinamide]",21.8
14,"C[C@H]1CNCCN1C(=O)[C@H]1CC[C@H](NC(=O)c2ccc(-c3cccc(F)c3)nc2)CC1 [Example 109, 6-(3-Fluorophenyl)-N-(trans-4-{[(2S)-2-methylpiperazin-1-yl]carbonyl}cyclohexyl)nicotinamide]",16.7
15,"O=C(N[C@H]1CC[C@H](CN2CCOCC2)CC1)c1ccc(-c2cccc(F)c2)nc1 [Example 110, 6-(3-Fluorophenyl)-N-[trans-4-(morpholin-4-ylmethyl)cyclohexyl]nicotinamide]",5.9
16,"CN1CCN(C[C@H]2CC[C@H](NC(=O)c3ccc(-c4cccc(F)c4)nc3)CC2)CC1 [Example 111, 6-(3-Fluorophenyl)-N-{trans-4-[(4-methylpiperazin-1-yl)methyl]cyclohexyl}nicotinamide]",23
17,"CN(C)C[C@H]1CC[C@H](NC(=O)c2ccc(-c3cccc(F)c3)nc2)CC1 [Example 112, N-{trans-4-[(Dimethylamino)methyl]cyclohexyl}-6-(3-fluorophenyl)nicotinamide]",15.8
18,"Cc1nccn1C[C@H]1CC[C@H](NC(=O)c2ccc(-c3cccc(F)c3)nc2)CC1 [Example 113, 6-(3-Fluorophenyl)-N-{trans-4-[(2-methyl-1H-imidazol-1-yl)methyl]cyclohexyl}nicotinamide]",9.76
19,"C[C@]1(O)CC[C@H](NC(=O)c2ccc(-c3cccc(F)c3)nc2)CC1 [Example 115, 6-(3-Fluorophenyl)-N-(trans-4-hydroxy-4-methylcyclohexyl)nicotinamide]",8.74
20,"C[C@]1(C(=O)O)CC[C@@H](NC(=O)c2ccc(-c3cccc(F)c3)nc2)CC1 [Example 116, cis-4-({[6-(3-Fluorophenyl)pyridin-3-yl]carbonyl}amino)-1-methylcyclohexanecarboxylic acid]",139
21,"C[C@]1(C(=O)O)CC[C@H](NC(=O)c2ccc(-c3cccc(F)c3)nc2)CC1 [Example 117, trans-4-({[6-(3-Fluorophenyl)pyridin-3-yl]carbonyl}amino)-1-methylcyclohexanecarboxylic acid]",7.17
22,"CN1CCN(C(=O)C2(C)CCC(NC(=O)c3ccc(-c4cccc(F)c4)nc3)CC2)CC1 (stereo not drawn) [Example 118, 6-(3-Fluorophenyl)-N-{cis-4-methyl-4-[(4-methylpiperazin-1-yl)carbonyl]cyclohexyl}nicotinamide]",51.2
23,"CCn1cnc2c1CCC(NC(=O)c1ccc(-c3cccc(F)c3)nc1)C2 (centres unmarked) [Example 126, N-(1-Ethyl-4,5,6,7-tetrahydro-1H-benzoimidazol-5-yl)-6-(3-fluoro-phenyl)-nicotinamide]",4.07
24,"O=C(NC1CCc2ncccc2C1)c1ccc(-c2cccc(F)c2)nc1 (centres unmarked) [Example 127, 6-(3-Fluorophenyl)-N-(5,6,7,8-tetrahydroquinolin-6-yl)nicotinamide]",5.03
25,"O=C(NC1CCCc2cccnc21)c1ccc(-c2cccc(F)c2)nc1 (centres unmarked) [Example 128, 6-(3-Fluorophenyl)-N-(5,6,7,8-tetrahydroquinolin-8-yl)nicotinamide]",179
26,N-{cis-3-[(3-aminocyclohexyl)carbamoyl]cyclohexyl}-6-(3-fluorophenyl)nicotinamide N-{trans-3-[(3-aminocyclohexyl)carbamoyl]cyclohexyl}-6-(3-fluorophenyl)nicotinamide [Example 64D],14.7
